The source made the active and inactive calls.
How the values were obtained:
[1] = inhibitors of firefly luciferase expression or activity, dose response, H4 neuroglioma cells, luminescence (AID 1990); assay type: functional, cell-based
[2] = biological target: T1, RNA-binding protein pos-1 (Caenorhabditis elegans, UniProt G5EF15); assay: inhibitors of POS-1/mex-3 RNA binding, dose response, biochemical, fluorescence polarization (AID 1964);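 note: purified POS-1 fused to maltose binding protein made in E. coli; potency of compounds blocking POS-1 binding to fluorescent RNA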
T1 sequence (G5EF15 whole entry): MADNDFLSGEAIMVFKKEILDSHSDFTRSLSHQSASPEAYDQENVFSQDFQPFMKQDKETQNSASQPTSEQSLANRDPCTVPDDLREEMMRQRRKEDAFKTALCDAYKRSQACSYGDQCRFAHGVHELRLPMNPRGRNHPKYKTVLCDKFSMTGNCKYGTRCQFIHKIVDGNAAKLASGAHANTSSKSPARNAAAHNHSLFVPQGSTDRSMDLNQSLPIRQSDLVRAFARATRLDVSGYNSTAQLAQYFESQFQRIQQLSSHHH

[3] = Luminescence Cell-Based Dose Response HTS to Identify Inhibitors of 5'UTR Stem-Loop Driven Prion Protein mRNA Translation in H4 Neuroglioblastoma Cells. [Related pubchem assays: 1827 (Project Summary), 1813 (Primary HTS)]; assay type: functional
[4] = biological target: T2, Zinc finger protein mex-5 (Caenorhabditis elegans, UniProt Q9XUB2); assay: MEX-5/TCR-2 RNA interaction inhibitors, dose response, biochemical, C. elegans, fluorescence polarization (AID 1960)
T2 sequence (Q9XUB2 whole entry): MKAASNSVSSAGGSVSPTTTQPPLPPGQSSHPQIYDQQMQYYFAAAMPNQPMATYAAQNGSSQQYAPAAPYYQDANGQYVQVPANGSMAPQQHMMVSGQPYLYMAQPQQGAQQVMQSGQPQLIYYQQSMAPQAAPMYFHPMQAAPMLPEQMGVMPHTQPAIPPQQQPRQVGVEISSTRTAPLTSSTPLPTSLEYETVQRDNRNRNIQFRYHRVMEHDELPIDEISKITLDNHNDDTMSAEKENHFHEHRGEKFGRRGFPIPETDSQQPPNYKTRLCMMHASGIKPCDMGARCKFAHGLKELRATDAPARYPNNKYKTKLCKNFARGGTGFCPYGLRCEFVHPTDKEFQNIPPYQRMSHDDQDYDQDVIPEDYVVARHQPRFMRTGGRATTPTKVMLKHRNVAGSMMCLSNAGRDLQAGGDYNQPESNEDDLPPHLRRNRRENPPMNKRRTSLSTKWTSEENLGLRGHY

[5] = inhibitors of SNCA 5'UTR-driven reporter translation, confirmation, H4 neuroglioma cells, luminescence (AID 1988); assay type: functional, cell-based
[6] = cytotoxicity in HEK-293T cells, dose response, cytotoxicity control for BCR NF-kB inhibitor project, luminescence, B-cell screen hits (AID 489021); assay type: functional, cell-based;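 note: HEK-293T cells carrying an NF-kB luciferase reporter; cells exposed to compound for about 14 hours before viability readout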
[7] = biological target: Peroxisome proliferator-activated receptor gamma/Nuclear receptor coactivator 1 (Homo sapiens, UniProt P37231); assay: (§1) TR-FRET dose response biochemical High Throughput Screening assay for agonists of the steroid receptor coactivator 1 (SRC-1) recruitment by the peroxisome proliferator-activated receptor gamma (PPAR gamma): non-selective agonists. [Related pubchem assays (depositor defined):AID1300, AID1808, AID504735, AID631]; assay type: protein assay
[8] = biological target: Peroxisome proliferator-activated receptor gamma/Nuclear receptor coactivator 3 (Homo sapiens, UniProt P37231); assay: as §1, with “3 (SRC-3)” for “1 (SRC-1)”, “assays: 1301 (Confirmation screen.), 1048 (Primary screen.)]” for “assays (depositor defined):AID1300, AID1808, AID504735, AID631]”; assay type: functional
[9] = biological target: Peroxisome proliferator-activated receptor gamma/Nuclear receptor coactivator 2 (Homo sapiens, UniProt P37231); assay: TR-FRET dose response biochemical High Throughput Screening assay for agonists of the steroid receptor coactivator 2 (SRC-2) recruitment by the peroxisome proliferator-activated receptor gamma (PPAR gamma): non-selective agonists. [Related pubchem assays: 1297, 1032 ]; assay type: functional
Chain of Peroxisome proliferator-activated receptor gamma/Nuclear receptor coactivator 2 (P37231 whole entry): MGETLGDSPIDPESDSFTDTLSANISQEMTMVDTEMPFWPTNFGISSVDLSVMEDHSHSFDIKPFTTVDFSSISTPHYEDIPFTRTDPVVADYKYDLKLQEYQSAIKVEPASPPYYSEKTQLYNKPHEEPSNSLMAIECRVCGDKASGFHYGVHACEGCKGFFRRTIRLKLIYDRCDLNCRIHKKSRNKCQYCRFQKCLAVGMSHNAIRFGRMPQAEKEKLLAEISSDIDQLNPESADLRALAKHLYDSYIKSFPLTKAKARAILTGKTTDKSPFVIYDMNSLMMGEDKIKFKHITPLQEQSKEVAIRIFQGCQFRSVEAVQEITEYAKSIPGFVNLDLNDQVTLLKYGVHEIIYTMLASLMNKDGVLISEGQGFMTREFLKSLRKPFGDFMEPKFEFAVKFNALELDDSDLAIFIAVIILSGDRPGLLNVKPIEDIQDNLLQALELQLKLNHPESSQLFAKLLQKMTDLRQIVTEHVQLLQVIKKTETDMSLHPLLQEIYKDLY
Chain of Peroxisome proliferator-activated receptor gamma/Nuclear receptor coactivator 2 (Q15596 whole entry, further chain): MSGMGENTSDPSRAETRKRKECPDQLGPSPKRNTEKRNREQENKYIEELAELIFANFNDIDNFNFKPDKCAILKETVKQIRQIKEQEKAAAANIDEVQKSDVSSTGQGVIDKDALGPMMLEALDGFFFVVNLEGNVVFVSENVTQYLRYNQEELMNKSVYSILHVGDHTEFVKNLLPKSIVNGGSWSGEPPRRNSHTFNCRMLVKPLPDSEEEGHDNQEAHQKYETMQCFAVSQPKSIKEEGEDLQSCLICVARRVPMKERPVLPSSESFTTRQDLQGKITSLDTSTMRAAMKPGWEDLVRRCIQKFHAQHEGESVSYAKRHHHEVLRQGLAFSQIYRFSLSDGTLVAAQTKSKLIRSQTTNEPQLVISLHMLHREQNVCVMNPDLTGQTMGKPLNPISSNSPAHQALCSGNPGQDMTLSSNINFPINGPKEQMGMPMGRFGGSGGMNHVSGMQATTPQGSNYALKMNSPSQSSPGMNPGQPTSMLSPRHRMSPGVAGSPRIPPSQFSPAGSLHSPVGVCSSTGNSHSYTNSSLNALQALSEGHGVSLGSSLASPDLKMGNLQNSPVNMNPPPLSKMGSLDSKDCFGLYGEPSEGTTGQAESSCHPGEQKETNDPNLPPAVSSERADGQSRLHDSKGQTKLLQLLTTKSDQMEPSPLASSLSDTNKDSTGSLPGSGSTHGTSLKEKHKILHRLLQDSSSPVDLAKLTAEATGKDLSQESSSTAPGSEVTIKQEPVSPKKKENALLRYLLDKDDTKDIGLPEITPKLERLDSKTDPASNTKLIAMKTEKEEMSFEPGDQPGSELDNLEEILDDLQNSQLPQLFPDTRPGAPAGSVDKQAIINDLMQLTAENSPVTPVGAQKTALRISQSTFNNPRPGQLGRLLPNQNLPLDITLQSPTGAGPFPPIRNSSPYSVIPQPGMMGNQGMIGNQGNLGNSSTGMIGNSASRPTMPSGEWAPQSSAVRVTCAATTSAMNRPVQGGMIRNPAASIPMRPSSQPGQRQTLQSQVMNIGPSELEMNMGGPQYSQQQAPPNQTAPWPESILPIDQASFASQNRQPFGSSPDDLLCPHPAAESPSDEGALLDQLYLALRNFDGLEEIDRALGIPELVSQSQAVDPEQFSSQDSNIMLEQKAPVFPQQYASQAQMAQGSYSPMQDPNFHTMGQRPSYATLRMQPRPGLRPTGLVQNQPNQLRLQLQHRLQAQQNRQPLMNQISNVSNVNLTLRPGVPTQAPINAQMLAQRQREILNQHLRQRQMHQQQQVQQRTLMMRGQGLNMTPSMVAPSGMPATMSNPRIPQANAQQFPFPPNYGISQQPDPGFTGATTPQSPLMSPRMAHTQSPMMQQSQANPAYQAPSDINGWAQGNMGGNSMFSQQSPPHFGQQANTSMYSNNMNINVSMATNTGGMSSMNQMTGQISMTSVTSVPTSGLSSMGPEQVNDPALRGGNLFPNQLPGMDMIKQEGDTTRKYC

Chain of Peroxisome proliferator-activated receptor gamma/Nuclear receptor coactivator 1 (P37231 whole entry): as the sequence (P37231 whole entry) above
Chain of Peroxisome proliferator-activated receptor gamma/Nuclear receptor coactivator 1 (Q15788 whole entry, further chain): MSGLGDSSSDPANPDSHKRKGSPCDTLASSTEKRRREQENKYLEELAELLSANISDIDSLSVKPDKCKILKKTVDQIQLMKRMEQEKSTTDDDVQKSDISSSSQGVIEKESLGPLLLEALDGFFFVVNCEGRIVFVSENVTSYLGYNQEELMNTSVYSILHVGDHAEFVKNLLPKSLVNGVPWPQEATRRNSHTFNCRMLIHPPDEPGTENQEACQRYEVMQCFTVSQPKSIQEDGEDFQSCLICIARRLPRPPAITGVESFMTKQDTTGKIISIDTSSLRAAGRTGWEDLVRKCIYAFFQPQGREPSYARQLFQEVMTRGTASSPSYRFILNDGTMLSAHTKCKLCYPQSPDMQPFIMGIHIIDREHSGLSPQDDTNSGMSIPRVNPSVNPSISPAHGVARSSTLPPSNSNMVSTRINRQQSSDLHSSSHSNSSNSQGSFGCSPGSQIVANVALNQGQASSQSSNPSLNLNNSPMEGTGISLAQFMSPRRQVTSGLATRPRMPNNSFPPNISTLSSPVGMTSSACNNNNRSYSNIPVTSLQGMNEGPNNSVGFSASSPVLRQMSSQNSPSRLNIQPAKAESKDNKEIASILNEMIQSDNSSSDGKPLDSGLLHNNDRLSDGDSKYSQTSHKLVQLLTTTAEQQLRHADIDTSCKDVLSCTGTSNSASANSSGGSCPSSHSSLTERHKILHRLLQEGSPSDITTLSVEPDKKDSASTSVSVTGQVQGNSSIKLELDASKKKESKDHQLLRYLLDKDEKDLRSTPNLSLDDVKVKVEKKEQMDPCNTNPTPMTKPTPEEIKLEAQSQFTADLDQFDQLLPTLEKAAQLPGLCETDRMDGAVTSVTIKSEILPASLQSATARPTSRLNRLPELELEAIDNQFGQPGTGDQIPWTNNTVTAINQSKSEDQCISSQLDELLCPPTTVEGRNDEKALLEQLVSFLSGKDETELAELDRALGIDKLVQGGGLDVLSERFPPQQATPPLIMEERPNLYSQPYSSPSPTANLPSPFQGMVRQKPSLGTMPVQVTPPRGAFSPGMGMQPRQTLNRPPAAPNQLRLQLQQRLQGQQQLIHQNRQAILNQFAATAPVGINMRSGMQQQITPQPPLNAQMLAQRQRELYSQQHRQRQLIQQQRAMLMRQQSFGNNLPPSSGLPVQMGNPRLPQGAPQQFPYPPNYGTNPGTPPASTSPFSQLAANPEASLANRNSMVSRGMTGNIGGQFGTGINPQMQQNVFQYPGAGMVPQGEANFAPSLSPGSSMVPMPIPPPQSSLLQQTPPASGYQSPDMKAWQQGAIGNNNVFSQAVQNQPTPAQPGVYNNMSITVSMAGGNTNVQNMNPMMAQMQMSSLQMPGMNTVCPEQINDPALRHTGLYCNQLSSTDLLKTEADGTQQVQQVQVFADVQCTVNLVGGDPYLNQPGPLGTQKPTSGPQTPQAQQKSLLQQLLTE

SMILES	EC50 [1]	EC50 [2]	EC50 [3]	EC50 [4]	EC50 [5]	IC50 [6]	EC50 [7]	EC50 [8]	EC50 [9]
COc1cccc(/C=C2\SC(=S)N(CCCC(=O)NC3=NCCS3)C2=O)c1	11.8 µM (active)	> 300 µM (not active)	14 µM (active)	> 300 µM (not active)	13.2 µM (active)	> 80 µM (inactive)			
C=CCOc1ccc(NC(=O)C(=O)NCCCn2ccnc2)cc1						> 80 µM (inactive)			
COc1ccc2nc(SCc3cccnc3)c(C#N)cc2c1							9.56 µM (active)	22.1 µM (not active)	9.26 µM (active)

From ChEMBL document CHEMBL1201862, “PubChem BioAssay data set” (2004)
